Source: patent US20040086553A1, “Foods and beverages for whitening and orally administered whitening agents” (The Nisshin OilliO, Ltd., priority 2000, published 2004)
Where two headings read alike, the source gives them in different places.

Key:
[1] = tested on: deposition of melanin pigment on the skin induced by the UV light irradiation; experiment: Animal test for the confirmation of whitening effect (UV-induced skin pigmentation, test feed); format: in vivo, Brown guinea pigs; conditions: 4 weeks; for Evaluation Results CI: number of 7 animals ranked Conspicuous Imp.; for Evaluation Results MI: number of 7 animals ranked Medium Imp.; for Evaluation Results NC: number of 7 animals ranked No Change; for Evaluation Results SI: number of 7 animals ranked Slight Imp.
Text: More specifically, the whitening effect can be evaluated by removing a half of the hair on the back of each brown guinea pig, keeping these animals over 2 weeks while irradiating the hair-removed area with a UV lamp, dividing these guinea pigs into groups in such a manner that there is not any difference in the degree of the melanin pigmentation induced by the UN light irradiation, allowing the animals in each group to freely take a test food comprising a feed having a low vitamin C content to which a variety of triterpenes have been added and keeping these animals over additional 4 weeks to evaluate the degree of skin pigmentation while comparing the same with those observed for a control group and for a positive control group.
Brown guinea pigs (5-week-old male animals) were preliminarily kept for one week using a commercially available feed (CG-7 available from Nippon Kurea Company), a half of the hair on the back was removed and the hair-removed portion on the back was irradiated with light rays emitted from a UV lamp of 1.2 mW for 5 minutes on the 1st day and then with light rays emitted from a UV lamp of 1.0 mW for 5 minutes on the 2nd and 3rd days. Subsequently, these animals were kept over 2 weeks using a feed having a low vitamin C content (200.0 mg/kg feed), these guinea pigs were divided into 12 groups (comprising 7 animals each) in such a manner that there was not observed any difference in the degree of deposition of melanin pigment on the skin induced by the UV light irradiation between groups and then the animals were allowed to freely ingest each test feed comprising the feed having a low vitamin C content to which each triterpene had been added in an amount specified in the following Table 2. In this respect, however, the vitamin C-deficient feed per se was supplied to the control group and a vitamin C-supplemented feed was supplied to the positive control group. After 4 weeks from the supply of the test feed, the degree of the pigmentation of the skin was evaluated according to the following criteria.

B-16 melanoma cells = experiment: Evaluation of melanin production-inhibitory function (degree of whiteness of cultured cells); format: cell-based; on Evaluation of Melanin Production-Inhibition (degree of whiteness of cells): key: ++: The degree of whiteness is higher than that observed for the positive control; +: The degree of whiteness is almost identical to that of the positive control; ±: The degree of whiteness is not higher than that observed for the positive control, but higher than that observed for control; −: The degree of whiteness is almost identical to that observed for the control
Text: The melanin production-inhibitory function of the 5-membered ring-containing triterpenes incorporated into the foods or beverages and orally administered whitening agents of the present invention can be determined by a test method, which makes use of cultured melanocytes. The term “melanocyte(s)” used herein means cells having an ability of producing melanin and when cultivating these cells in the usual manner, the cells are blackened due to the accumulation of melanin pigment thus produced. Contrary to this, if a substance having such a melanin production-inhibitory function is incorporated into this cultivation system, the melanin production is suppressed and the skin is relatively whitened. The melanin production-inhibitory function can likewise be evaluated on the basis of this degree of relative whitening.
A culture medium (2 mL/well) was dispensed to a 6-well plate, a predetermined amount of B-16 melanoma cells was inoculated into the culture medium in each well and the cells were cultured at 37° C. and 5% CO2 by allowing the culture medium to stand. On the next day, a solution of test sample (each 5-membered ring-containing triterpene to be evaluated) having a predetermined concentration was added to and mixed with the culture medium and the cultivation was continued. On the 5th day from the initiation of the cultivation, the culture medium was exchanged and the test sample solution was again added to each well. On the next day, the culture medium was removed from each well to thus recover the cells, followed by washing the cells with PBS (phosphate-buffered physiological saline) and evaluation of the desired function based on the degree of whiteness of the cells. In this connection, the melanin production-inhibitory effect was evaluated by comparing the resulting degree of whiteness with that observed when 450 ppm of vitamin C-magnesium phosphate having a known effect was added instead of the test sample solution (positive control) and that observed when any test sample was not added (control) according to the following criteria.
The evaluation criteria for the degree of whiteness of cells are as follows: […]

[2] = positive control group, 2500.0 mg/kg feed
[3] = 250.0 mg/kg feed, free ingestion
[4] = 500.0 mg/kg feed, free ingestion, 500 mg/kg
[5] = 500.0 mg/kg feed, free ingestion
[6] = Concentration 2 ppm, rank vs 450 ppm vitamin C-magnesium phosphate
[7] = Concentration 4 ppm, rank vs 450 ppm vitamin C-magnesium phosphate
[8] = Concentration 6 ppm, rank vs 450 ppm vitamin C-magnesium phosphate
[9] = Concentration 8 ppm, rank vs 450 ppm vitamin C-magnesium phosphate
[10] = Concentration 10 ppm, rank vs 450 ppm vitamin C-magnesium phosphate
[11] = compared with 450 ppm of vitamin C-magnesium phosphate
[12] = Concentration 25 ppm, rank vs 450 ppm vitamin C-magnesium phosphate
[13] = Concentration 50 ppm, rank vs 450 ppm vitamin C-magnesium phosphate
[14] = Concentration 15 ppm, rank vs 450 ppm vitamin C-magnesium phosphate

Compound | Evaluation of Melanin Production-Inhibition (degree of whiteness of cells) (B-16 melanoma cells; [6]) | Evaluation of Melanin Production-Inhibition (degree of whiteness of cells) (B-16 melanoma cells; [8]) | Evaluation of Melanin Production-Inhibition (degree of whiteness of cells) (B-16 melanoma cells; [10]) | melanin production-inhibitory function relative to that observed for the positive control/standard (B-16 melanoma cells; [11]) | Evaluation of Melanin Production-Inhibition (degree of whiteness of cells) (B-16 melanoma cells; [12]) | Evaluation of Melanin Production-Inhibition (degree of whiteness of cells) (B-16 melanoma cells; [13]) | also measured
O=C1O[C@H]([C@@H](O)CO)C(O)=C1O [L-Ascorbic acid, reference compound] |  |  |  |  |  |  | Evaluation Results CI [1, 2]: 0; Evaluation Results MI [1, 2]: 1; Evaluation Results NC [1, 2]: 2; Evaluation Results SI [1, 2]: 4
CC1(C)CC[C@]2(C(=O)O)CC[C@]3(C)C(=CC[C@@H]4[C@@]5(C)C[C@@H](O)[C@H](O)C(C)(C)[C@@H]5CC[C@]43C)[C@@H]2C1 [Purified maslinic acid 1, maslinic acid] |  |  |  |  |  |  | Evaluation Results CI [1, 3]: 2; Evaluation Results CI [1, 4]: 4; Evaluation Results MI [1, 3]: 3; Evaluation Results MI [1, 5]: 3; Evaluation Results NC [1, 3]: 0; Evaluation Results NC [1, 5]: 0; Evaluation Results SI [1, 3]: 2; Evaluation Results SI [1, 4]: 0; Evaluation of Melanin Production-Inhibition (degree of whiteness of cells) (B-16 melanoma cells): ± and + and ++; concentration at which the function is identical to that observed for 450 ppm of the positive control (B-16 melanoma cells): 4 ppm; melanin production-inhibitory function relative to that observed for the positive control/standard (B-16 melanoma cells): about 110 times
CCOC(=O)[C@]12CCC(C)(C)C[C@H]1C1=CC[C@@H]3[C@@]4(C)C[C@@H](O)[C@H](O)C(C)(C)[C@@H]4CC[C@@]3(C)[C@]1(C)CC2 [Compound of Synthetic Example 1, Ethyl Maslinate] | ± | ++ | ++ | about 110 times |  |  | Evaluation Results CI [1, 5]: 2; Evaluation Results MI [1, 5]: 3; Evaluation Results NC [1, 5]: 1; Evaluation Results SI [1, 5]: 1; Evaluation of Melanin Production-Inhibition (degree of whiteness of cells) (B-16 melanoma cells; [7]): +; Evaluation of Melanin Production-Inhibition (degree of whiteness of cells) (B-16 melanoma cells; [9]): ++
CC1(C)CC[C@]2(C(=O)O)CC[C@]3(C)C(=CC[C@@H]4[C@@]5(C)C[C@@H](O)[C@H](O)C(C)(C)[C@@H]5CC[C@]43C)[C@@H]2C1 [Purified maslinic acid 3, maslinic acid] |  |  |  |  |  |  | Evaluation of Melanin Production-Inhibition (degree of whiteness of cells) (B-16 melanoma cells): ± and + and ++
C=C(C)[C@@H]1CC[C@]2(C(=O)OCC)CC[C@]3(C)[C@H](CC[C@@H]4[C@@]5(C)CC[C@H](O)C(C)(C)[C@@H]5CC[C@]43C)[C@@H]12 [Compound of Synthetic Example 8, Betulinic Acid Ethyl Ester] | − | ± | ± | about 20 times | + | + | 
CC(=O)OCC12CCC(C)(C)CC1C1=CCC3C4(C)CCC(OC(C)=O)C(C)(C)C4CCC3(C)C1(C)CC2 (centres unmarked) [Compound of Synthetic Example 5, 3,28-O-di-Acetyl-Erythrodiol] | − | ± | ± | about 20 times | + | + | 
CC(=O)OC[C@]12CC[C@@H](C)[C@H](C)[C@H]1C1=CC[C@@H]3[C@@]4(C)CC[C@H](OC(C)=O)C(C)(C)[C@@H]4CC[C@@]3(C)[C@]1(C)CC2 [Compound of Synthetic Example 7, 3,28-O-di-Acetyl-Uvaol] | − | − | ± | about 20 times | + | + | 
2,3-O-di-Triethylsilyl-Maslinic Acid Triethylsilyl Ester [Compound of Synthetic Example 3] | − | ± | + | about 40 times | + | + | 
O=c1cc(CO)occ1O [Kojic acid, reference compound] |  |  | − |  | − | ± | Evaluation of Melanin Production-Inhibition (degree of whiteness of cells) (B-16 melanoma cells; [14]): −; Evaluation of Melanin Production-Inhibition (degree of whiteness of cells) (B-16 melanoma cells; Concentration 100 ppm, rank vs 450 ppm vitamin C-magnesium phosphate): ±; Evaluation of Melanin Production-Inhibition (degree of whiteness of cells) (B-16 melanoma cells; Concentration 200 ppm, rank vs 450 ppm vitamin C-magnesium phosphate): +; Evaluation of Melanin Production-Inhibition (degree of whiteness of cells) (B-16 melanoma cells; Concentration 300 ppm, rank vs 450 ppm vitamin C-magnesium phosphate): ++; Evaluation of Melanin Production-Inhibition (degree of whiteness of cells) (B-16 melanoma cells; Concentration 450 ppm, rank vs 450 ppm vitamin C-magnesium phosphate): ++
CCOC(=O)[C@]12CC[C@@H](C)[C@H](C)[C@H]1C1=CC[C@@H]3[C@@]4(C)CC[C@H](O)C(C)(C)[C@@H]4CC[C@@]3(C)[C@]1(C)CC2 [Compound of Synthetic Example 6, Ursolic Acid Ethyl Ester] | ± | ++ | ++ | about 110 times |  |  | Evaluation of Melanin Production-Inhibition (degree of whiteness of cells) (B-16 melanoma cells; [7]): +; Evaluation of Melanin Production-Inhibition (degree of whiteness of cells) (B-16 melanoma cells; [9]): ++
2,3-O-di-Stearoyl-Maslinic Acid Ethyl Ester [Compound of Synthetic Example 4] | ± | + | ++ | about 75 times |  |  | Evaluation of Melanin Production-Inhibition (degree of whiteness of cells) (B-16 melanoma cells; [7]): ±; Evaluation of Melanin Production-Inhibition (degree of whiteness of cells) (B-16 melanoma cells; [9]): ++; Evaluation of Melanin Production-Inhibition (degree of whiteness of cells) (B-16 melanoma cells; [14]): ++
C=C(C)[C@@H]1CC[C@]2(COC(C)=O)CC[C@]3(C)[C@H](CC[C@@H]4[C@@]5(C)CC[C@H](OC(C)=O)C(C)(C)[C@@H]5CC[C@]43C)[C@@H]12 [Compound of Synthetic Example 9, 3,28-O-di-Acetyl-Betulin] | − | − | ± | about 10 times | ± | + | 
